{"source": "patent US20240277698A1", "about": "“METHODS OF USING ALDOSTERONE SYNTHASE INHIBITORS” (CINCOR PHARMA, INC., priority 2021, published 2024)", "assay": "Single-ascending dose (SAD) study in healthy subjects: plasma and urine pharmacokinetics", "conditions": "human, in vivo", "protocol": "A second, generally lower peak was often observed at 3 to 4 hours postdose.\nA second, generally lower peak was often observed at 3 to 4 hours post-dose. […] Over the anticipated therapeutically relevant dose range (through 10 mg), peak and overall exposures (as assessed by Cmax and area under the concentration-time curve [AUC]) increased in a generally dose-proportional manner.\nSingle- and Multiple-Dose Plasma Pharmacokinetics of (R)-compound 1. The single- and multiple-dose PK profiles of (R)-compound 1 have been characterized in healthy subjects in the Phase 1 studies. FIG. 7 depicts the mean plasma concentration versus time profiles of (R)-compound 1 after administration of single oral doses of (R)-compound 1 ranging from 1 mg to 360 mg (under low salt conditions) and at steady-state over the range of 0.5 mg to 5 mg (under low and/or normal salt conditions). After oral administration, (R)-compound 1 is rapidly absorbed with peak concentrations observed within 3 hours after dosing (range 0.5 to 4 hours).", "data": [{"smiles": "CCC(=O)N[C@@H]1CCCc2c(-c3ccc4c(c3)CCC(=O)N4C)cncc21", "note": "[(R)-Compound 1, (R)—N-(4-(1-methyl-2-oxo-1,2,3,4-tetrahydroquinolin-6-yl)-5,6,7,8-tetrahydroisoquinolin-8-yl)propionamide]", "values": [{"measurement": "CL renal", "result": "4.63 to 7.38", "unit": "mL/min"}, {"measurement": "Renal clearance as share of total plasma clearance, average", "result": 15.5, "unit": "%"}, {"measurement": "Renal clearance as share of total plasma clearance, range of individual values", "result": "6.53-31.8%"}, {"measurement": "fraction unbound", "result": 0.26}, {"measurement": "dose recovered unchanged in the urine", "setting": "po", "result": "Approximately 110%"}, {"measurement": "half-life", "setting": "po", "result": "25 to 31", "unit": "h"}, {"measurement": "median time (tmax) to maximum observed concentration (Cmax)", "setting": "po", "result": "0.5 to 2", "unit": "h"}, {"measurement": "second, generally lower peak, time postdose", "setting": "po", "result": "3 to 4", "unit": "h"}, {"measurement": "time to peak concentrations, range", "setting": "po", "result": "0.5 to 4", "unit": "h"}, {"measurement": "AUC(0-inf)", "setting": "po, 1 mg", "result": 330, "unit": "ng·h/mL"}, {"measurement": "AUC(0-t)", "setting": "po, 1 mg", "result": 147, "unit": "ng·h/mL"}, {"measurement": "AUCextrapoloated", "setting": "po, 1 mg", "result": 1.66, "unit": "%"}, {"measurement": "CL/F", "setting": "po, 1 mg", "result": 3270, "unit": "mL/h"}, {"measurement": "Cmax", "setting": "po, 1 mg", "result": 10.1, "unit": "ng/mL"}, {"measurement": "Tmax", "setting": "po, 1 mg", "result": 1, "unit": "h"}, {"measurement": "Vd/F", "setting": "po, 1 mg", "result": 122, "unit": "L"}, {"measurement": "half-life", "setting": "po, 1 mg", "result": 27.4, "unit": "h"}, {"measurement": "AUC(0-inf)", "setting": "po, 3 mg", "result": 1070, "unit": "ng·h/mL"}, {"measurement": "AUC(0-t)", "setting": "po, 3 mg", "result": 491, "unit": "ng·h/mL"}, {"measurement": "AUCextrapoloated", "setting": "po, 3 mg", "result": 1.68, "unit": "%"}, {"measurement": "CL/F", "setting": "po, 3 mg", "result": 2820, "unit": "mL/h"}, {"measurement": "Cmax", "setting": "po, 3 mg", "result": 31.9, "unit": "ng/mL"}, {"measurement": "Tmax", "setting": "po, 3 mg", "result": 2, "unit": "h"}, {"measurement": "Vd/F", "setting": "po, 3 mg", "result": 117, "unit": "L"}, {"measurement": "half-life", "setting": "po, 3 mg", "result": 29.1, "unit": "h"}, {"measurement": "AUC(0-inf)", "setting": "po, 10 mg", "result": 3630, "unit": "ng·h/mL"}, {"measurement": "AUC(0-t)", "setting": "po, 10 mg", "result": 1600, "unit": "ng·h/mL"}, {"measurement": "AUCextrapoloated", "setting": "po, 10 mg", "result": 1.37, "unit": "%"}, {"measurement": "CL/F", "setting": "po, 10 mg", "result": 2820, "unit": "mL/h"}, {"measurement": "Cmax", "setting": "po, 10 mg", "result": 125, "unit": "ng/mL"}, {"measurement": "Tmax", "setting": "po, 10 mg", "result": 0.5, "unit": "h"}, {"measurement": "Vd/F", "setting": "po, 10 mg", "result": 123, "unit": "L"}, {"measurement": "half-life", "setting": "po, 10 mg", "result": 30.7, "unit": "h"}, {"measurement": "AUC(0-inf)", "setting": "po, 30 mg", "result": 11000, "unit": "ng·h/mL"}, {"measurement": "AUC(0-t)", "setting": "po, 30 mg", "result": 5260, "unit": "ng·h/mL"}, {"measurement": "AUCextrapoloated", "setting": "po, 30 mg", "result": 0.986, "unit": "%"}, {"measurement": "CL/F", "setting": "po, 30 mg", "result": 2820, "unit": "mL/h"}, {"measurement": "Cmax", "setting": "po, 30 mg", "result": 386, "unit": "ng/mL"}, {"measurement": "Tmax", "setting": "po, 30 mg", "result": 0.75, "unit": "h"}, {"measurement": "half-life", "setting": "po, 30 mg", "result": 29.4, "unit": "h"}, {"measurement": "AUC(0-inf)", "setting": "po, 90 mg", "result": 32200, "unit": "ng·h/mL"}, {"measurement": "AUC(0-t)", "setting": "po, 90 mg", "result": 18300, "unit": "ng·h/mL"}, {"measurement": "AUCextrapoloated", "setting": "po, 90 mg", "result": "0456", "unit": "%"}, {"measurement": "CL/F", "setting": "po, 90 mg", "result": 2830, "unit": "mL/h"}, {"measurement": "Cmax", "setting": "po, 90 mg", "result": 1380, "unit": "ng/mL"}, {"measurement": "Tmax", "setting": "po, 90 mg", "result": 1.25, "unit": "h"}, {"measurement": "Vd/F", "setting": "po, 90 mg", "result": 102, "unit": "L"}, {"measurement": "half-life", "setting": "po, 90 mg", "result": 25.3, "unit": "h"}]}]}
